Where “and” joins values, the source holds several entries; their conditions need not be identical. Equal entries are not always repeated.
Key:
[1] = molecular target: T1, HEK-mAC4 (Homo sapiens, UniProt Q8NFM4); assay: cAMP accumulation assay, isoproterenol-stimulated HEK-mAC4 cells; format: cell-based; conditions: for cAMP level (%); 100%= 10µM Isoproterenol stimulation: single experiments
T1 construct: Human mAC genes were from GenScript and fitted with a C-terminal FLAG-tag; FLAG (C); expressed in transfected cells; host or cells: HEK293, permanently transfected
T1 sequence (Q8NFM4 1-1077): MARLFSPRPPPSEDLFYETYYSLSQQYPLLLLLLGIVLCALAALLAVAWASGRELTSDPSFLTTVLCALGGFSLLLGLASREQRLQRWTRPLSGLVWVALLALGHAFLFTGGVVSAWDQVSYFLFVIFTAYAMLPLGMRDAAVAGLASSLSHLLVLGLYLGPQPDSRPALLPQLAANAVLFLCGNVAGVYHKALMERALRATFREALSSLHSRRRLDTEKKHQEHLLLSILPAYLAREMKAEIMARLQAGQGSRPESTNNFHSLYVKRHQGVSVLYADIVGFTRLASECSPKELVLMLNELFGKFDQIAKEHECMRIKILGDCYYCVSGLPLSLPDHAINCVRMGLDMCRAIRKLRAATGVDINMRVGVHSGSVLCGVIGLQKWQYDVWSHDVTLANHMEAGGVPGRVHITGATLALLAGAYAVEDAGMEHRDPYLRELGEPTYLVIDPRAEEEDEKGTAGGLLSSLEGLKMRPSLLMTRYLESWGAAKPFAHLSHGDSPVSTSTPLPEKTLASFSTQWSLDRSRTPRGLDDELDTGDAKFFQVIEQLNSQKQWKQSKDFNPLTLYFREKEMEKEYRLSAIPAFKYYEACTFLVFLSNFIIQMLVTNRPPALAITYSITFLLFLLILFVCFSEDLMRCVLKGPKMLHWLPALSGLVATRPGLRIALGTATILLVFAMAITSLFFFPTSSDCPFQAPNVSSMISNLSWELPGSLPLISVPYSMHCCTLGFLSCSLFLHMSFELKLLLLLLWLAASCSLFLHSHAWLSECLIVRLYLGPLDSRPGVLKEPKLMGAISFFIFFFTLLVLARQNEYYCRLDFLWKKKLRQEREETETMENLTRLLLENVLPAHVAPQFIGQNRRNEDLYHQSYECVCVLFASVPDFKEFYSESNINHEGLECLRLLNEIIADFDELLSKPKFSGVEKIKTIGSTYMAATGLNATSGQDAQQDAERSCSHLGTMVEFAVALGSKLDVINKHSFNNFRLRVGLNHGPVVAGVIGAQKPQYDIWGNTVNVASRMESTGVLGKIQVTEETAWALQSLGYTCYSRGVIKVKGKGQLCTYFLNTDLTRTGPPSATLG

[2] = molecular target: T2, mAC7 (Homo sapiens, UniProt P51828); assay: AC assay, Gsα-stimulated mAC7 in membranes from transfected HEK293 cells; format: biochemical
T2 construct: Human mAC genes were from GenScript and fitted with a C-terminal FLAG-tag; FLAG (C); made in house; host or cells: HEK293, permanently transfected; membrane preparation
T2 sequence (P51828 whole entry): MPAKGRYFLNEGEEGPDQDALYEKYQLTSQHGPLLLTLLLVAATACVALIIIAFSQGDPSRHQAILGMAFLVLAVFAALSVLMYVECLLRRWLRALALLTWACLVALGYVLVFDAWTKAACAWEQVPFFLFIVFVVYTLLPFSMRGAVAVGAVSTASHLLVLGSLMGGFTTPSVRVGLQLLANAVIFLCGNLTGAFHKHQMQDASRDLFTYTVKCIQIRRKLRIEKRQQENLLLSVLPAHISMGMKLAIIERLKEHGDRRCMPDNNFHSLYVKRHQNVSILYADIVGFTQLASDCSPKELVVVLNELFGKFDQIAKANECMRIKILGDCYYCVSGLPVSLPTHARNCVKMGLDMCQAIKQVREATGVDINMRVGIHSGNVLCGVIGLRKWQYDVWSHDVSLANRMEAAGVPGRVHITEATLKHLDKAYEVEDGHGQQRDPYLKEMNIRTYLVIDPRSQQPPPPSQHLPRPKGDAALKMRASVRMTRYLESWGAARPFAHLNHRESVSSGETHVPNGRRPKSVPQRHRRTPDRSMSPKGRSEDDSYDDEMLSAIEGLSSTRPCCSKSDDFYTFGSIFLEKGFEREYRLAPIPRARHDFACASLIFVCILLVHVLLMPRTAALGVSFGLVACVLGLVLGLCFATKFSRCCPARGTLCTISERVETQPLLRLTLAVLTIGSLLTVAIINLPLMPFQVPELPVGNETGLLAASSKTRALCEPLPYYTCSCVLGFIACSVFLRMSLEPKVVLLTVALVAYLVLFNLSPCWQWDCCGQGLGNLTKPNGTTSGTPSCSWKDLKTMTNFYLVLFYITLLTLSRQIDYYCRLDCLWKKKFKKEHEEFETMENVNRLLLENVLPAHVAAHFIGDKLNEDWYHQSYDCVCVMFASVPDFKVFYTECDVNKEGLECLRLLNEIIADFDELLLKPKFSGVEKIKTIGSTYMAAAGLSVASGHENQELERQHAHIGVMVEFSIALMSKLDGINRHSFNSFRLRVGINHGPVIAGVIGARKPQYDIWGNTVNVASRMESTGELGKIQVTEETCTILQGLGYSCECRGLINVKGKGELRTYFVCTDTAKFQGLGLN
T2 sequence (P63092 2-394 Q227L partner): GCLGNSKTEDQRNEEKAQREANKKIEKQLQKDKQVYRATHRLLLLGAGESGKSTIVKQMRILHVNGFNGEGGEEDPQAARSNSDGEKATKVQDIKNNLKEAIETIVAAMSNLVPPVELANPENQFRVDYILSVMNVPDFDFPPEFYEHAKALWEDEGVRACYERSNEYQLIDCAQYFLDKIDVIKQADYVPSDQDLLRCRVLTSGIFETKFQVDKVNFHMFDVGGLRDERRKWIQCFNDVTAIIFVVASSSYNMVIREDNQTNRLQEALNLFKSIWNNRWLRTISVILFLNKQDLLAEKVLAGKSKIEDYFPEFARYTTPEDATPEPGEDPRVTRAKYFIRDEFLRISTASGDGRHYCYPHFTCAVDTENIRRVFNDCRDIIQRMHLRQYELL
Summary of the method: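 EC50 and IC50 values come from cAMP production, read with a Cisbio cAMP kit and converted via a standard curve. Assay mix held 1 mM ATP, 2 mM MgCl2, 3 mM creatine phosphate and 60 μg/ml creatine kinase in 50 mM MOPS pH 7.5, using transfected HEK293 membranes.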

[3] = system: mAC1-C1/mAC2-C2; assay: AC assay, Gsα-stimulated soluble catalytic dimer; format: biochemical
Description: (§1) In a volume of 10 μl, AC activities were measured using 1 mM ATP, 2 mM MgCl2, 3 mM creatine phosphate, 60 μg/ml creatine kinase, and 50 mM MOPS pH 7.5. The cAMP assay kit from Cisbio (Codolet, France) was used for detection according to the supplier’s instructions. For each assay, a cAMP standard curve was established. EC50 and IC50 values were calculated by GraphPad Prism version 8.4.3 for Windows, GraphPad Software, San Diego, CA, USA, https://www.graphpad.com .

[4] = system: mAC activity in brain cortical membranes; assay: AC assay, Gsα-stimulated brain cortical membranes; format: biochemical, mouse
Description: hAC sequences were from NCBI were: ADCY1: NM_021116.3; ADCY2: NM_020546.2; ADCY3: NM_004036.4; ADCY4: NM_001198568.2; ADCY5: NM_183357.2; ADCY6: NM_015270.4; ADCY7: NM_001114.4; ADCY8: NM_001115.2; ADCY9: NM_001116.3. Human mAC genes were from GenScript and fitted with a C-terminal FLAG-tag. […] The gene was synthesized by GenScript. HEK293 cells were maintained in Dulbeccos Modified Eagle Medium (DMEM) with 10% fetal bovine serum at 37°C and 5% CO2. Transfection with AC plasmids was with PolyJet (SignaGen, Frederick, MD, USA). Permanent cell lines were generated by selection for 7 days with 600 µg/ml G418 and maintained with 300 µg/ml For membrane preparation, cells were tyrpsinized, collected by centrifugation (3000 × g, 5 min) and lysed and homogenized in 20 mM HEPES, pH 7.5, 1 mM Ethylenediaminetetraacetic acid (EDTA), 2 mM MgCl2, 1 mM Dithiothreitol (DTT), one tablet of cOmplete, EDTA-free (per 50 ml) and 250 mM sucrose by 20 strokes in a potter homogenizer on ice. Debris was removed (5 min at 1000 × g, 0°C), membranes were collected at 100,000 × g, 60 min at 0°C, suspended and stored at −80°C in 20 mM MOPS, pH 7.5, 0.5 mM EDTA, 2 mM MgCl2. […] Three cerebral cortices were dissected and homogenized in 4.5 ml cold 48 mM Tris–HCl, pH 7.4, 12 mM MgC1_2, and 0.1 mM Ethylene glycol-bis(β-aminoethyl ether)-N,N,N′,N′-tetraacetic acid (EGTA) with a Polytron hand disperser (Kinematica AG, Switzerland). […] The pellet was washed once with 5 ml 1 mM KHCO3. The final suspension in 2 ml 1 mM KHCO3 was stored in aliquots at −80°C.
as §1

For `CCCCC/C=C\C/C=C\C/C=C\C/C=C\CCCC(=O)O` [Arachidonic acid, Arachidonic ((5Z,8Z,11Z,14Z)-eicosatetraenoic) acid], the “Effect on isoproterenol-stimulated cAMP formation in HEK-mAC4” value ([1]; 10 µM isoproterenol, in words) was “not attenuated”, the “cAMP level (%); 100%= 10µM Isoproterenol stimulation” value (shortened to “cAMP level (%)”) ([1]; HEK-mAC4, 1e-5 µM) was 136% and the “cAMP level (%)” value ([1]; HEK-mAC4, 0.0001 µM) was 111%. For the same compound, the “cAMP level (%)” value ([1]; HEK-mAC4, 0.001 µM) was 114%, the “cAMP level (%)” value ([1]; HEK-mAC4, 0.01 µM) was 81% and 101% and 120% and 122% and the “cAMP level (%)” value ([1]; HEK-mAC4, 0.03 µM) was 124%. For the same compound, the “cAMP level (%)” value ([1]; HEK-mAC4, 0.06 µM) was 102%, the “cAMP level (%)” value ([1]; HEK-mAC4, 0.1 µM) was 84% and 94% and 116% and 103% and the “cAMP level (%)” value ([1]; HEK-mAC4, 0.6 µM) was 108%. For the same compound, the “cAMP level (%)” value ([1]; HEK-mAC4, 1 µM) was 106% and 107% and 121% and 127% and 99% and 109% and 161% and 110%, the “cAMP level (%)” value ([1]; HEK-mAC4, 3 µM) was 93% and 101% and 129% and 97% and 124% and 139% and the “cAMP level (%)” value ([1]; HEK-mAC4, 10 µM) was 112% and 82% and 111% and 109% and 125% and 147%. The “cAMP level (%)” value ([1]; HEK-mAC4, 30 µM) was 103% and 112% and 97% and 105% and 131%, the “cAMP level (%)” value ([1]; HEK-mAC4, 60 µM) was 95% and 112% and 121% and 114% and 128% and the “cAMP level (%)” value ([1]; HEK-mAC4, 100 µM) was 99% and 78% and 112% and 85% and 100% and 146% and 145%.

For `CCCCCCCC/C=C\CCCCCCCC(=O)O` [Oleic acid, Oleic ((9Z)-octadecenoic) acid], the “Effect of lipid on 300 nM Gsα-stimulated mAC7” value ([2]; 20 µM, in words) was “significantly enhanced”, the “mAC7 activity [%] (100% = 300nM Gsα stimulation)” value ([2]; Figure 5 B, oleic acid 0.3 µM) was 100% and the EC50 ([2]; enhancement of 300 nM Gsα-stimulated activity) was 6.7 µM. The “AC activity (%); stimulated by 300nM Gsα, mAC1-C1/mAC2-C2” value (shortened to “AC activity (%); stimulated”) ([3]; Oleic acid 0.3 µM) was 100%, the “AC activity (%); stimulated” value ([3]; Oleic acid 1 µM) was 93% and 84% and 72% and the “AC activity (%); stimulated” value ([3]; Oleic acid 3 µM) was 77% and 90% and 82%. For the same compound, the “AC activity (%); stimulated” value ([3]; Oleic acid 6 µM) was 78% and 77% and 84%, the “AC activity (%); stimulated” value ([3]; Oleic acid 10 µM) was 68% and 70% and 67% and the “AC activity (%); stimulated” value ([3]; Oleic acid 20 µM) was 74% and 77% and 65%. The “enhancement of Gsα-stimulated cAMP formation in cortical membranes” value ([4]; 20 µM oleic acid) was 1.5 fold, the “mAC activity [%] (100% = 300nM Gsα stimulation), mouse brain cortex” value (“mAC activity [%]” below) ([4]; Oleic acid 1 µM) was 78% and 93% and 114% and the “mAC activity [%]” value ([4]; Oleic acid 3 µM) was 154%. The “mAC activity [%]” value ([4]; Oleic acid 6 µM) was 153% and 144%, the “mAC activity [%]” value ([4]; Oleic acid 8 µM) was 173% and 146% and 174% and the “mAC activity [%]” value ([4]; Oleic acid 10 µM) was 142% and 181%. The “mAC activity [%]” value ([4]; Oleic acid 20 µM) was 187% and 161% and 140% and the EC50 ([4]; enhancement of 300 nM Gsα-stimulated cAMP formation) was 5 µM.
